# Experimental data reported in PubChem BioAssay (NCI).
# “And” between values parts separate entries of the source, which are not always exact repeats. Equal entries are not always repeated.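 1) Cells in 96-well plates. 2) Compound, 48 h, 5 concentrations. 3) Linear interpolation between surrounding doses. 4) Unreached endpoint = highest concentration. Abbreviation: GI50, concentration required for 50% inhibition of growth. Definition used: TGI = concentration required for complete inhibition of growth.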
# What was measured:
# Assay in all cases: growth of human tumour cells (NCI), 48 h
# LOX IMVI melanoma = system: LOX IMVI melanoma
# SNB-19 CNS = system: SNB-19 CNS
# SR leukemia = system: SR leukemia
# SNB-75 CNS = system: SNB-75 CNS
# COLO 205 colon = system: COLO 205 colon
# T-47D breast = system: T-47D breast
# OVCAR-3 ovarian = system: OVCAR-3 ovarian
# MOLT-4 leukemia = system: MOLT-4 leukemia
# HS 578T breast = system: HS 578T breast
# SF-539 CNS = system: SF-539 CNS
# MCF7 breast = system: MCF7 breast
# DU-145 prostate = system: DU-145 prostate
# UACC-62 melanoma = system: UACC-62 melanoma
# NCI-H23 lung = system: NCI-H23 lung
# IGROV1 ovarian = system: IGROV1 ovarian
# SN12C renal = system: SN12C renal
# HOP-62 NSCLC = system: HOP-62 NSCLC
# UO-31 renal = system: UO-31 renal
# CCRF-CEM leukemia = system: CCRF-CEM leukemia
# RXF 393 renal = system: RXF 393 renal
# M14 melanoma = system: M14 melanoma
# OVCAR-5 ovarian = system: OVCAR-5 ovarian
# MDA-MB-468 breast = system: MDA-MB-468 breast
# SK-MEL-2 melanoma = system: SK-MEL-2 melanoma
# NCI-H460 lung = system: NCI-H460 lung
# OVCAR-8 ovarian = system: OVCAR-8 ovarian
# OVCAR-4 ovarian = system: OVCAR-4 ovarian
# CAKI-1 renal = system: CAKI-1 renal
# 786-0 renal = system: 786-0 renal
# ACHN renal = system: ACHN renal
# MALME-3M melanoma = system: MALME-3M melanoma
# HCT-116 colon = system: HCT-116 colon
# KM12 colon = system: KM12 colon
# HL-60(TB) leukemia = system: HL-60(TB) leukemia
# PC-3 prostate = system: PC-3 prostate
# SK-MEL-5 melanoma = system: SK-MEL-5 melanoma
# K-562 leukemia = system: K-562 leukemia
# HT29 colon = system: HT29 colon
# SF-295 CNS = system: SF-295 CNS
# TK-10 renal = system: TK-10 renal
# BT-549 breast = system: BT-549 breast
# A498 renal = system: A498 renal
# SW-620 colon = system: SW-620 colon
# A549 NSCLC = system: A549 NSCLC
# HOP-92 NSCLC = system: HOP-92 NSCLC
# SK-MEL-28 melanoma = system: SK-MEL-28 melanoma
# RPMI-8226 leukemia = system: RPMI-8226 leukemia
# U251 CNS = system: U251 CNS
# SF-268 CNS = system: SF-268 CNS
# NCI/ADR-RES ovarian = system: NCI/ADR-RES ovarian
# HCC-2998 colon = system: HCC-2998 colon
# EKVX NSCLC = system: EKVX NSCLC
# HCT-15 colon = system: HCT-15 colon
# MDA-MB-231 breast = system: MDA-MB-231 breast
# NCI-H522 lung = system: NCI-H522 lung
# SK-OV-3 ovarian = system: SK-OV-3 ovarian
# MDA-MB-435 = system: MDA-MB-435
# UACC-257 melanoma = system: UACC-257 melanoma
# NCI-H226 lung = system: NCI-H226 lung
structure (smiles),measurement,setting,value
CC(=O)c1ccc(Nc2nc(SCCC(C)C)nc(-c3ccc(F)cc3)c2C#N)cc1,GI50,LOX IMVI melanoma,4.41 µM
same,TGI,LOX IMVI melanoma,25.7 µM
same,GI50,SNB-19 CNS,3.7 µM
same,TGI,SNB-19 CNS,14.5 µM
same,GI50,SR leukemia,> 100 µM
same,TGI,SR leukemia,> 100 µM
same,GI50,SNB-75 CNS,2.06 µM
same,TGI,SNB-75 CNS,21.6 µM
same,GI50,COLO 205 colon,7.42 µM
same,TGI,COLO 205 colon,> 100 µM
same,GI50,T-47D breast,4.19 µM
same,TGI,T-47D breast,74.5 µM
same,GI50,OVCAR-3 ovarian,13.3 µM
same,TGI,OVCAR-3 ovarian,72.8 µM
same,GI50,MOLT-4 leukemia,> 100 µM
same,TGI,MOLT-4 leukemia,> 100 µM
same,GI50,HS 578T breast,3.06 µM
same,TGI,HS 578T breast,10.1 µM
same,GI50,SF-539 CNS,3.69 µM
same,TGI,SF-539 CNS,16 µM
same,GI50,MCF7 breast,7.51 µM
same,TGI,MCF7 breast,> 100 µM
same,GI50,DU-145 prostate,10.7 µM
same,TGI,DU-145 prostate,> 100 µM
same,GI50,UACC-62 melanoma,30.2 µM
same,TGI,UACC-62 melanoma,> 100 µM
same,GI50,NCI-H23 lung,5.86 µM
same,TGI,NCI-H23 lung,39.6 µM
same,GI50,IGROV1 ovarian,10.6 µM
same,TGI,IGROV1 ovarian,37.9 µM
same,GI50,SN12C renal,24 µM
same,TGI,SN12C renal,> 100 µM
same,GI50,HOP-62 NSCLC,3.99 µM
same,TGI,HOP-62 NSCLC,16.3 µM
same,GI50,UO-31 renal,5.01 µM
same,TGI,UO-31 renal,25.7 µM
same,GI50,CCRF-CEM leukemia,> 100 µM
same,TGI,CCRF-CEM leukemia,> 100 µM
same,GI50,RXF 393 renal,3.53 µM
same,TGI,RXF 393 renal,16.8 µM
same,GI50,M14 melanoma,24.2 µM
same,TGI,M14 melanoma,> 100 µM
same,GI50,OVCAR-5 ovarian,> 100 µM
same,TGI,OVCAR-5 ovarian,> 100 µM
same,GI50,MDA-MB-468 breast,10.2 µM
same,TGI,MDA-MB-468 breast,50.3 µM
same,GI50,SK-MEL-2 melanoma,> 100 µM
same,TGI,SK-MEL-2 melanoma,> 100 µM
same,GI50,NCI-H460 lung,3.24 µM
same,TGI,NCI-H460 lung,12.5 µM
same,GI50,OVCAR-8 ovarian,5.77 µM
same,TGI,OVCAR-8 ovarian,25.5 µM
same,GI50,OVCAR-4 ovarian,7.2 µM
same,TGI,OVCAR-4 ovarian,93.3 µM
same,GI50,CAKI-1 renal,3.75 µM
same,TGI,CAKI-1 renal,23.5 µM
same,GI50,786-0 renal,3.09 µM
same,TGI,786-0 renal,8.47 µM
same,GI50,ACHN renal,2.07 µM
same,TGI,ACHN renal,4.56 µM
same,GI50,MALME-3M melanoma,32.6 µM
same,TGI,MALME-3M melanoma,> 100 µM
same,GI50,HCT-116 colon,3.51 µM
same,TGI,HCT-116 colon,13.7 µM
same,GI50,KM12 colon,45.5 µM
same,TGI,KM12 colon,> 100 µM
same,GI50,HL-60(TB) leukemia,> 100 µM
same,TGI,HL-60(TB) leukemia,> 100 µM
same,GI50,PC-3 prostate,24.7 µM
same,TGI,PC-3 prostate,> 100 µM
same,GI50,SK-MEL-5 melanoma,13.8 µM
same,TGI,SK-MEL-5 melanoma,53.4 µM
same,GI50,K-562 leukemia,32.2 µM
same,TGI,K-562 leukemia,> 100 µM
same,GI50,HT29 colon,5.53 µM
same,TGI,HT29 colon,> 100 µM
same,GI50,SF-295 CNS,2.18 µM
same,TGI,SF-295 CNS,5.13 µM
same,GI50,TK-10 renal,3.78 µM
same,TGI,TK-10 renal,12.7 µM
same,GI50,BT-549 breast,12.7 µM
same,TGI,BT-549 breast,> 100 µM
same,GI50,A498 renal,2.84 µM
same,TGI,A498 renal,8.8 µM
same,GI50,SW-620 colon,16.7 µM
same,TGI,SW-620 colon,> 100 µM
same,GI50,A549 NSCLC,3.85 µM
same,TGI,A549 NSCLC,> 100 µM
same,GI50,HOP-92 NSCLC,2.95 µM
same,TGI,HOP-92 NSCLC,16.6 µM
same,GI50,SK-MEL-28 melanoma,29.6 µM
same,TGI,SK-MEL-28 melanoma,> 100 µM
same,GI50,RPMI-8226 leukemia,> 100 µM
same,TGI,RPMI-8226 leukemia,> 100 µM
same,GI50,U251 CNS,2.63 µM
same,TGI,U251 CNS,7.87 µM
same,GI50,SF-268 CNS,4.85 µM
same,TGI,SF-268 CNS,97.4 µM
same,GI50,NCI/ADR-RES ovarian,4.31 µM
same,TGI,NCI/ADR-RES ovarian,27.5 µM
same,GI50,HCC-2998 colon,21 µM
same,TGI,HCC-2998 colon,> 100 µM
same,GI50,EKVX NSCLC,3.05 µM
same,TGI,EKVX NSCLC,18.8 µM
same,GI50,HCT-15 colon,9.87 µM
same,TGI,HCT-15 colon,> 100 µM
same,GI50,MDA-MB-231 breast,2.94 µM
same,TGI,MDA-MB-231 breast,10.2 µM
same,GI50,NCI-H522 lung,24 µM
same,TGI,NCI-H522 lung,> 100 µM
same,GI50,SK-OV-3 ovarian,9.37 µM
same,TGI,SK-OV-3 ovarian,26.2 µM
same,GI50,MDA-MB-435,12.9 µM
same,TGI,MDA-MB-435,> 100 µM
same,GI50,UACC-257 melanoma,> 100 µM
same,TGI,UACC-257 melanoma,> 100 µM
same,GI50,NCI-H226 lung,3.82 µM
same,TGI,NCI-H226 lung,22.4 µM
COc1cc(/C=C/c2cc(/C=C/c3ccc(O)c(OC)c3)n(-c3c(Cl)cccc3Cl)c(=O)n2)ccc1O,GI50,MDA-MB-468 breast,2.76 µM
same,TGI,MDA-MB-468 breast,7.18 µM
O=C(NNc1nc2cc(F)c(F)cc2n2cccc12)c1ccncn1,GI50,MDA-MB-468 breast,0.241 µM
same,TGI,MDA-MB-468 breast,1.58 µM
C[C@@]1(C(=O)Nc2ccc(F)nc2)CCCN1c1nc(Nc2cc(C3CC3)[nH]n2)c2cccn2n1,GI50,MDA-MB-468 breast,0.25 µM and 0.526 µM
same,TGI,MDA-MB-468 breast,4.37 µM
CC(=O)/C=C/c1ccc(OCc2ccc(C(C)(C)C)cc2)cc1,GI50,MDA-MB-468 breast,33.9 µM
same,TGI,MDA-MB-468 breast,> 1000 µM
O=C(Nc1ccc(Br)cc1)Nc1nc2ccc([N+](=O)[O-])cc2s1,GI50,MDA-MB-468 breast,1.67 µM
same,TGI,MDA-MB-468 breast,3.29 µM
O=c1c2cc(F)ccc2sc2c(Nc3ccncc3)nc3ccccc3c12,GI50,MDA-MB-468 breast,1.78 µM
same,TGI,MDA-MB-468 breast,3.5 µM
COc1cc2c3c(n(CCCNC4CCC4)c(=O)c2cc1OC)-c1cc2c(cc1C3=O)OCO2,GI50,MDA-MB-468 breast,1.41 µM
same,TGI,MDA-MB-468 breast,3.22 µM
CCNC(=O)N1CCc2cc(OC)c(OCCc3ccc(OC)c(N)c3)cc2C1c1ccc(C)cc1C (stereo not drawn),GI50,MDA-MB-468 breast,0.301 µM
same,TGI,MDA-MB-468 breast,15.8 µM
COc1cc2c(cc1OCCCCCn1c(-c3ccc(OCc4ccccc4)cc3)nc3cc(N4CCOCC4)ccc31)N=C[C@@H]1CCCN1C2=O,GI50,MDA-MB-468 breast,0.936 µM
same,TGI,MDA-MB-468 breast,5.1 µM
COc1cc2c(cc1I)-c1c(cc(OC)c(OC)c1OC)CC[C@@H]2NC(C)=O,GI50,MDA-MB-468 breast,0.244 µM
same,TGI,MDA-MB-468 breast,0.738 µM
